No end group written: not given here.
B1: ceruloplasmin: protein tested for interaction in the PACAP assay (protein, UniProt P00450 20-1065, looked up)
Ceruloplasmin: KEKHYYIGIIETTWDYASDHGEKKLISVDTEHSNIYLQNGPDRIGRLYKKALYLQYTDETFRTTIEKPVWLGFLGPIIKAETGDKVYVHLKNLASRPYTFHSHGITYYKEHEGAIYPDNTTDFQRADDKVYPGEQYTYMLLATEEQSPGEGDGNCVTRIYHSHIDAPKDIASGLIGPLIICKKDSLDKEKEKHIDREFVVMFSVVDENFSWYLEDNIKTYCSEPEKVDKDNEDFQESNRMYSVNGYTFGSLPGLSMCAEDRVKWYLFGMGNEVDVHAAFFHGQALTNKNYRIDTINLFPATLFDAYMVAQNPGEWMLSCQNLNHLKAGLQAFFQVQECNKSSSKDNIRGKHVRHYYIAAEEIIWNYAPSGIDIFTKENLTAPGSDSAVFFEQGTTRIGGSYKKLVYREYTDASFTNRKERGPEEEHLGILGPVIWAEVGDTIRVTFHNKGAYPLSIEPIGVRFNKNNEGTYYSPNYNPQSRSVPPSASHVAPTETFTYEWTVPKEVGPTNADPVCLAKMYYSAVEPTKDIFTGLIGPMKICKKGSLHANGRQKDVDKEFYLFPTVFDENESLLLEDNIRMFTTAPDQVDKEDEDFQESNKMHSMNGFMYGNQPGLTMCKGDSVVWYLFSAGNEADVHGIYFSGNTYLWRGERRDTANLFPQTSLTLHMWPDTEGTFNVECLTTDHYTGGMKQKYTVNQCRRQSEDSTFYLGERTYYIAAVEVEWDYSPQREWEKELHHLQEQNVSNAFLDKGEFYIGSKYKKVVYRQYTDSTFRVPVERKAEEEHLGILGPQLHADVGDKVKIIFKNMATRPYSIHAHGVQTESSTVTPTLPGETLTYVWKIPERSGAGTEDSACIPWAYYSTVDQVKDLYSGLIGPLIVCRRPYLKVFNPRRKLEFALLFLVFDENESWYLDDNIKTYSDHPEKVNKDDEEFIESNKMHAINGRMFGNLQGLTMHVGDEVNWYLMGMGNEIDLHTVHFHGHSFQYKHRGVYSSDVFDIFPGTYQTLEMFPRTPGIWLLHCHVTDHIHAGMETTYTVLQNEDTKSG

Tested on: Anti-PACAP antibodies (capture Lu AG20136, detection Lu AG20141)
Experiment: Reactivity in PACAP MSD S-PLEX sandwich immunoassay
Type: binding
Settings: sandwich ECL immunoassay

Molecule	Reactivity in PACAP MSD S-PLEX assay
vasoactive intestinal peptide (HSDAVFTDNYTRLRKQMAVKKYLNSILN; ends and bridges not checked; UniProt P01282 125-152, looked up) [VIP]	No reactivity
B1	no interaction
